Each structure is given as a SMILES string. Values joined by “and” are separate entries in the source; they are usually repeats but may differ in a detail not shown here. Equal values may be shown once.

A short description of series [1]: UV-Vis absorption and fluorescence spectroscopy. The format is physicochemical. On the set-up: Brightness: unit not given here. The settings on record: for pH and solvent sensitivity of UV and fluorescence spectra: 10-15 μM, aqueous 10% DMSO with HCl, NaOH or pH 7.4 buffer, various solvents; for Extinction coefficient / λmax abs: 10% DMSO. From the text:
UV-Vis absorption and fluorescence spectroscopy. UV-Vis spectra were collected with a Cary 50 UV-Vis spectrophotometer at room temperature, using a 1-cm quartz cuvette. Fluorescence spectra were collected on a Cary Eclipse fluorescence spectrophotometer (Agilent Technologies). All absorbance spectra were reference corrected. Fluorescence spectra were corrected for the wavelength dependent response of the R928 photomultiplier tube using a manufacturer generated correction file. Quantum yields are reported as the average of multiple measurements using multiple references. Excitation emission matrices (EEMs) were collected over various spectral regions, using 5-nm step sizes for emission and 10-nm step sizes for excitation. The band pass for excitation and emission was 5 to 10 nm.
(§1) Probes 1-13 were screened for pH and solvent sensitivity. Solvent sensitivity or dependence is at least partially attributable to differences in the equilibria between tautomeric forms of the compounds in the various solvents evaluated. The fluorophore concentrations ranged from 10-15 μM. Aqueous solutions contained 10% DMSO and 12.5 mM HCl, 12.5 mM NaOH, or pH 7.4 phosphate buffer.

Series [2] is described as follows: pKa of ionizable fluorophores (pH sensitivity screening). In kind it is physicochemical. The settings on record: aqueous solutions with 10% DMSO. On the procedure: as §1
Where [3] appears, read: acidic solution pH 1.9, HCl, excited at 480 nm or 510 nm.
Where [4] appears, read: conjugate base, basic solution pH 12.1, NaOH.
[5] abbreviates: conjugate base, pH 12.1, NaOH, excited at 630 nm.
Where [6] appears, read: pH 7.4 phosphate buffer, methyl ether derivatives.
Setting [7] is: pH 7.4 buffer, excited at 480 nm.
The mark [8] stands for this setting: pH 7.4 buffer, methyl ether derivatives.
Where [9] appears, read: basic solution pH 12.1, NaOH, 15 μM.
Setting [10] is: conjugate acid, acidic solution pH 1.9, HCl, 15 μM.
[11] abbreviates: pH 7.4 buffer, excited at 630 nm.
The mark [12] stands for this setting: pH 7.4 buffer, seminaphthorhodamines.
The mark [13] stands for this setting: pH 7.4 phosphate buffer, seminaphthorhodamines.

On to `COC(=O)c1ccccc1-c1c2ccc(=N)cc-2oc2c1ccc1cccc(O)c12.Cl` [Compound 3, 1-hydroxy-7-(2-(methoxycarbonyl)phenyl)-10H-benzo[c]xanthen-10-iminium chloride], for which the “pH and solvent sensitivity of UV and fluorescence spectra” value (from here on “pH and solvent sensitivity”) in series [1] is “exhibit pH as well as solvent sensitivity”. Also, in series [1] (acidic solution pH 1.9, HCl), the Brightness came out at 226, the Stokes shift was 62 nm, the Extinction coefficient was 19787 M⁻¹ cm⁻¹ and the λmax abs was determined as 542 nm. In series [1] (setting [3]), this molecule yielded a Quantum yield of 1.14% and a λmax em of 604 nm. Moreover, in series [1] (setting [4]), the Extinction coefficient worked out at 15589 M⁻¹ cm⁻¹ and the λmax abs was found to be 621 nm. Further, in series [1] (conjugate base, pH 12.1, NaOH), the Brightness was determined as 17 and the Stokes shift came to 149 nm. Further, in series [1] (setting [5]), the Quantum yield was 0.11% and the λmax em is 770 nm. The pKa in series [2] (Table 1) was 6.67 +/− 0.11.

For the molecule `COC(=O)c1ccccc1-c1c2ccc(=N)cc-2oc2c1ccc1cccc(OC)c12.O=C(O)O` [Compound 4, 1-methoxy-7-(2-(methoxycarbonyl)phenyl)-10H-benzo[c]xanthen-10-iminium bicarbonate], in series [1], the “pH and solvent sensitivity” value is “insensitive to variations in pH or solvent”. Also, in series [1] (setting [6]), the Extinction coefficient was 21742 M⁻¹ cm⁻¹.

Take `COC(=O)c1ccccc1-c1c2ccc(=[N+](C)C)cc-2oc2c1ccc1cccc(O)c12` [Compound 5, N-(1-hydroxy-7-(2-(methoxycarbonyl)phenyl)-10H-benzo[c]xanthen-10-ylidene)-N-N-dimethyl iminium bicarbonate]: in series [1], the “pH and solvent sensitivity” value was “exhibit pH as well as solvent sensitivity”. The same molecule gave an Extinction coefficient in series [1] (acidic solution pH 1.9, HCl) of 20399 M⁻¹ cm⁻¹. Moreover, in series [1] (setting [4]), the Extinction coefficient was found to be 17252 M⁻¹ cm⁻¹ and the λmax abs was 632 nm. Further, in series [1] (conjugate base, pH 12.1, NaOH), the Brightness is on record as 29 and the Stokes shift stood at 148 nm. Moreover, in series [1] (setting [5]), the Quantum yield is recorded as 0.17% and the λmax em was found to be 780 nm.

Consider `COC(=O)c1ccccc1-c1c2ccc(=[N+](C)C)cc-2oc2c1ccc1cccc(OC)c12.[Cl-]` [Compound 6, N-(1-methoxy-7-(2-(methoxycarbonyl)phenyl)-10H-benzo[c]xanthen-10-ylidene)-N-methylmethanaminium chloride], for which, in series [1], the “pH and solvent sensitivity” value is listed as “insensitive to variations in pH or solvent”. Moreover, in series [1] (setting [7]), the Quantum yield is listed as 9.32% and the λmax em worked out at 606 nm. In series [1] (setting [8]), the Brightness was 2094 and the Stokes shift was determined as 38 nm. In series [1] (setting [6]), this molecule yielded an Extinction coefficient of 22470 M⁻¹ cm⁻¹ and a λmax abs of 568 nm.

`COC(=O)c1ccccc1-c1c2ccc(=O)cc-2oc2c1ccc1cccc(N)c12` [Compound 7, methyl 2-(1-amino-10-oxo-10H-benzo[c]xanthen-7-yl)benzoate]: the “pH and solvent sensitivity” value in series [1] was “not affected by either solvent changes or by solution pH values above 2”. In addition, in series [1] (setting [9]), the Extinction coefficient was 5664 M⁻¹ cm⁻¹ and 8300 M⁻¹ cm⁻¹. In series [1] (setting [10]), the Extinction coefficient was 3996 M⁻¹ cm⁻¹ and the λmax abs is 598 nm. For the same molecule, in series [1] (conjugate acid, pH 1.9, HCl), the Stokes shift worked out at 172 nm and the λmax em was determined as 770 nm.

For `COC(=O)c1ccccc1-c1c2ccc(=O)cc-2oc2c1ccc1cccc(N(C)C)c12` [Compound 8, methyl 2-(1-(dimethylamino)-10-oxo-10H-benzo[c]xanthen-7-yl)benzoate], the “pH and solvent sensitivity” value in series [1] is “not affected by either solvent changes or by solution pH values above 2”. In addition, in series [1] (basic solution pH 12.1, NaOH), the Stokes shift was 21 nm and the λmax em was 530 nm. In series [1] (setting [9]), this molecule showed an Extinction coefficient of 8834 M⁻¹ cm⁻¹ and a λmax abs of 530 nm. In series [1] (setting [10]), the Extinction coefficient was 10132 M⁻¹ cm⁻¹ and the λmax abs is listed as 480 nm. Further, in series [1] (conjugate acid, pH 1.9, HCl), the Stokes shift is 100 nm and the λmax em was 580 nm. Also, in series [2] (Table 5), the pKa is reported as 4.36 +/− 0.04.

For `COC(=O)c1ccccc1-c1c2ccc(=N)cc-2oc2c1ccc1cccc(N)c12.Cl` [Compound 9, 1-amino-7-(2-(methoxycarbonyl)phenyl)-10H-benzo[c]xanthen-10-iminium chloride], the “pH and solvent sensitivity” value in series [1] is listed as “not pH dependent, but were modestly solvent sensitive”. For the same molecule, in series [1] (setting [11]), the Quantum yield was found to be 0.18% and the λmax em is reported as 760 nm. In series [1] (setting [12]), the Brightness is reported as 25 and the Stokes shift is 184 nm. In series [1] (setting [13]), the Extinction coefficient is 13872 M⁻¹ cm⁻¹ and the λmax abs came to 576 nm.

As for `COC(=O)c1ccccc1C1=c2cc3c4c(c2Oc2c1ccc1cccc(O)c21)CCC[N+]=4CCC3` [Compound 11, 15-hydroxy-9-(2-(methoxycarbonyl)phenyl)-1,2,3,5,6,7-hexahydrobenzo[7,8]chromeno[2,3-f]pyrido[3,2,1-ij]quinolin-4-ium chloride], the “pH and solvent sensitivity” value in series [1] was “exhibit pH as well as solvent sensitivity”. In series [1] (acidic solution pH 1.9, HCl), the Brightness amounted to 2314, the Stokes shift is listed as 39 nm, the Extinction coefficient amounted to 15134 M⁻¹ cm⁻¹ and the λmax abs is 585 nm. In series [1] (setting [3]), this molecule gave a Quantum yield of 15.29% and a λmax em of 624 nm. In series [1] (setting [4]), this molecule had an Extinction coefficient of 14454 M⁻¹ cm⁻¹ and a λmax abs of 643 nm. Besides, in series [1] (conjugate base, pH 12.1, NaOH), the Brightness was 43 and the Stokes shift is 127 nm. In series [1] (setting [5]), the Quantum yield is reported as 0.30% and the λmax em is 770 nm. Besides, the pKa in series [2] (Table 1) is recorded as 7.84 +/− 0.11.
